Test results reported in patent US8507533B2, “Glucagon receptor modulators” (Pfizer Inc., priority 2011, dated 2013).

molecular target: human glucagon receptor (Homo sapiens (Human), UniProt P47871); assay: Glucagon cAMP Assay (Cisbio cAMP detection); type: cell-based; settings: CHOK1 cells stably transfected with the human glucagon receptor; block of glucagon induced cAMP production; Kb by modified Cheng-Prusoff equation
Procedure: The Cisbio cAMP detection assay is used to determine the ability of punitive glucagon antagonist to block glucagon induced cAMP production. Potential glucagon antagonists are re-suspended and diluted in 100% DMSO. Prior to use in the Glucagon cAMP assay 100×DMSO compound stocks are diluted 20× with DMEM-F12 media (Invitrogen) containing either 0.1% or 4% BSA. […] 2 μls of 5% DMSO or known glucagon antagonist are added to each plate to define the assay window. CHOK1 cells stably transfected with the human glucagon receptor are removed from culture flasks with cell dissociation buffer. Cell pellets are re-suspended, at a concentration of 8.3e^5 cells/ml in DMEM-F12 with or without 4% BSA and 200 uM IBMX. 6 μls of cell suspensions are added to the assay plates. Plates are incubated for 20 min at room temperature prior to the addition of a 100 μM challenge dose of glucagon. On a separate plate glucagon dose response curves are run to determine the EC50 of glucagon. After a 30 min room temperature incubation the reaction is terminated by the addition of lysis buffer containing the cAMP detection reagents. Plates are incubated for an additional 60 min at room temperature prior to being read on the Perkin Elmer fluorescent plate reader. Raw is converted to nM of cAMP produced based on a cAMP standard curve. Converted data is then analyzed using the Pfizer data analysis program. IC50 values are determined from the generated sigmoidal dose response curves. Kb values are calculated using a modified Cheng-Prusoff equation. N is the number of times the compound was assayed.

human glucagon receptor, sequence (P47871 26-477): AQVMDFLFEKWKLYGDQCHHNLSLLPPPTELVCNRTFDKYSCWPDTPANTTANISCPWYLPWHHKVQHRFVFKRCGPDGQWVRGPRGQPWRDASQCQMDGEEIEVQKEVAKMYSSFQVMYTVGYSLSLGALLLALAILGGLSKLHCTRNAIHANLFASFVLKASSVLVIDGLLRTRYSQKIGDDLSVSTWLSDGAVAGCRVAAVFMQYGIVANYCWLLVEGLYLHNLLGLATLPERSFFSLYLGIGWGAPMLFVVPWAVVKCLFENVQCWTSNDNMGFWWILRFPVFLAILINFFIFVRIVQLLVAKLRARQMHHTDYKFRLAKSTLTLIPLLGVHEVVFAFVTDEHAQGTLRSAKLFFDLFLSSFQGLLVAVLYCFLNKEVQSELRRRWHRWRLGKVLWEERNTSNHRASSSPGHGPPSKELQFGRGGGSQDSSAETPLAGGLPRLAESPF

Structure (SMILES) | Kb [nM]
CCCC(Oc1ccc(-n2nc(C)cc2OCC)cc1)c1ccc(C(=O)NCCC(=O)O)cc1 (racemic) [Example 32, (+/−)-3-(4-(1-(4-(5-ethoxy-3-methyl-1H-pyrazol-1-yl)phenoxy)butyl)benzamido)propanoic acid] | 1590
Cc1cc(-n2cc(C(F)(F)F)cn2)ccc1C(Nc1ccc(C(=O)NCCC(=O)O)cn1)C1CCCCC1 (single isomer, unassigned) [Example 118, 3-(6-(cyclohexyl(2-methyl-4-(4-(trifluoromethyl)-1H-pyrazol-1-yl)phenyl)methylamino)nicotinamido)propanoic acid] | 1020
CCCC(Oc1ccc(-n2cc3c(n2)CCC3)cc1)c1ccc(C(=O)NCCC(=O)O)cc1 (racemic) [Example 90, (+/−)-3-(4-(1-(4-(5,6-dihydrocyclopenta[c]pyrazol-2(4H)-yl)phenoxy)butyl)benzamido)propanoic acid] | > 2500
CCCC(Oc1ccc(-n2nccn2)cc1)c1ccc(C(=O)NCCC(=O)O)cc1 (racemic) [Example 30, (+/−)-3-(4-(1-(4-(2H-1,2,3-triazol-2-yl)phenoxy)butyl)benzamido)propanoic acid] | 1410
CC(C)CC(Oc1ccc(C(=O)NCCC(=O)O)cc1)c1ccc(-n2cnc(C(F)(F)F)c2)cc1 (racemic) [Example 2, (+/−)-3-(4-(3-methyl-1-(4-(4-(trifluoromethyl)-1H-imidazol-1-yl)phenyl)butoxy)benzamido)propanoic acid] | 5280
O=C(O)CCNC(=O)c1ccc(C(CC2CC2)Oc2ccc(-n3cc(C(F)(F)F)cn3)cc2)cc1 (racemic) [Example 65, (+/−)-3-(4-(2-cyclopropyl-1-(4-(4-(trifluoromethyl)-1H-pyrazol-1-yl)phenoxy)ethyl)benzamido)propanoic acid] | 2880
CCCC(Oc1ccc(-n2cnc(CC)c2CC)cc1)c1ccc(C(=O)NCCC(=O)O)cc1 (racemic) [Example 44, (+/−)-3-(4-(1-(4-(4,5-diethyl-1H-imidazol-1-yl)phenoxy)butyl)benzamido)propanoic acid] | 3110
CCCC(Oc1ccc(-n2ccc(C(C)C)n2)cc1)c1ccc(C(=O)NCCC(=O)O)cc1 (racemic) [Example 27, (+/−)-3-(4-(1-(4-(3-isopropyl-1H-pyrazol-1-yl)phenoxy)butyl)benzamido)propanoic acid] | 1080
CCCC(Oc1ccc(-n2cnc(Cl)c2C)cc1)c1ccc(C(=O)NCCC(=O)O)cc1 (racemic) [Example 43, (+/−)-3-(4-(1-(4-(4-chloro-5-methyl-1H-imidazol-1-yl)phenoxy)butyl)benzamido)propanoic acid] | 2910
CCCC(Nc1ccc(-n2cnc(C(F)(F)F)c2)c(C)c1)c1ccc(C(=O)NCCC(=O)O)cc1 (racemic) [Example 1, (+/−)-3-(4-(1-(3-methyl-4-(4-(trifluoromethyl)-1H-imidazol-1-yl)phenylamino)butyl)benzamido)propanoic acid] | 1500
CCCC(Oc1ccc(-n2cnc(C)c2C)cc1)c1ccc(C(=O)NCCC(=O)O)cc1 (racemic) [Example 49, (+/−)-3-(4-(1-(4-(4,5-dimethyl-1H-imidazol-1-yl)phenoxy)butyl)benzamido)propanoic acid] | 10300
CCCC(Oc1ccc(-n2cnc(C)n2)cc1)c1ccc(C(=O)NCCC(=O)O)cc1 (racemic) [Example 46, (+/−)-3-(4-(1-(4-(3-methyl-1H-1,2,4-triazol-1-yl)phenoxy)butyl)benzamido)propanoic acid] | 6890
CC(C)(C)CC(Nc1ccc(-n2cnc(C(F)(F)F)c2)nc1)c1ccc(C(=O)NCCC(=O)O)cc1 (racemic) [Example 100, (+/−)-3-(4-(3,3-dimethyl-1-(6-(4-(trifluoromethyl)-1H-imidazol-1-yl)pyridine-3-ylamino)butyl)benzamido)propanoic acid] | 226
CCCCc1nccn1-c1ccc(OC(CCC)c2ccc(C(=O)NCCC(=O)O)cc2)cc1 (racemic) [Example 48, (+/−)-3-(4-(1-(4-(2-butyl-1H-imidazol-1-yl)phenoxy)butyl)benzamido)propanoic acid] | 8150
CCCCc1cn(-c2ccc(OC(CCC)c3ccc(C(=O)NCCC(=O)O)cc3)cc2)cn1 (racemic) [Example 34, (+/−)-3-(4-(1-(4-(4-butyl-1H-imidazol-1-yl)phenoxy)butyl)benzamido)propanoic acid] | 1710
CCCC(Oc1ccc(-n2ccc(C(C)(C)C)n2)cc1)c1ccc(C(=O)NCCC(=O)O)cc1 (racemic) [Example 21, (+/−)-3-(4-(1-(4-(3-tert-butyl-1-1H-pyrazol-1-yl)phenoxy)butyl)benzamido)propanoic acid] | 824

Structure (SMILES) | Kb [nM]
CCCC(Oc1ccc(-n2cnc(C(F)(F)F)n2)cc1)c1ccc(C(=O)NCCC(=O)O)cc1 (racemic) [Example 73, (+/−)-3-(4-(1-(4-(3-(trifluoromethyl)-1H-1,2,4-triazol-1-yl)phenoxy)butyl)benzamido)propanoic acid] | 2640
CCCC(Oc1ccc(-n2nc(C)cc2C)cc1)c1ccc(C(=O)NCCC(=O)O)cc1 (racemic) [Example 45, (+/−)-3-(4-(1-(4-(3,5-dimethyl-1H-pyrazol-1-yl)phenoxy)butyl)benzamido)propanoic acid] | 3350
CCCC(Oc1ccc(-c2cnn(C)c2C)cc1)c1ccc(C(=O)NCCC(=O)O)cc1 (racemic) [Example 55, (+/−)-3-(4-(1-(4-(1,5-dimethyl-1H-pyrazol-4-yl)phenoxy)butyl)benzamido)propanoic acid] | 3720
CC(C)(C)CC(Oc1ccc(-n2cc(C(F)(F)F)cn2)cc1)c1ccc(C(=O)NCCC(=O)O)cc1 (racemic) [Example 71, (+/−)-3-(4-(3,3-dimethyl-1-(4-(4-(trifluoromethyl)-1H-pyrazol-1-yl)phenoxy)butyl)benzamido)propanoic acid] | 2120
CC(C)CC(Cc1ccc(-n2cc(C(F)(F)F)cn2)cc1)c1ccc(C(=O)NCCC(=O)O)cc1 (racemic) [Example 4, (+/−)-3-(4-(4-methyl-1-(4-(4-(trifluoromethyl)-1H-pyrazol-1-yl)phenyl)pentan-2-yl)benzamido)propanoic acid] | 1270
CCCC(Nc1ccc(-n2cnc(C(F)(F)F)c2)nc1)c1ccc(C(=O)NCCC(=O)O)cc1 (single isomer, unassigned; isomer 2) [Example 11, 3-(4-(1-(6-(4-(trifluoromethyl)-1H-imidazol-1-yl)yridine-3-ylamino)butyl)benzamido)propanoic acid, Isomer 2] | 612
CCCC(Oc1ccc(-n2ccc(C(F)(F)F)n2)cc1)c1ccc(C(=O)NCCC(=O)O)cc1 (racemic) [Example 70, (+/−)-3-(4-(1-(4-(3-(trifluoromethyl)-1H-pyrazol-1-yl)phenoxy)butyl)benzamido)propanoic acid] | 1910
O=C(O)CCNC(=O)c1ccc(NC(c2ccc(-n3cc(C(F)(F)F)cn3)cc2)C2CCCCC2)nc1 (racemic) [Example 99] | 376
CCCC(Oc1ccc(-n2ccc(C)c2C#N)cc1)c1ccc(C(=O)NCCC(=O)O)cc1 (racemic) [Example 37, (+/−)-3-(4-(1-(4-(2-cyano-3-methyl-1H-pyrrol-1-yl)phenoxy)butyl)benzamido)propanoic acid] | 1760
CCCC(Oc1ccc(-n2ccn3nccc23)cc1)c1ccc(C(=O)NCCC(=O)O)cc1 (racemic) [Example 41, (+/−)-3-(4-(1-(4-(1H-imidazo[1,2-b]pyrazol-1-yl)phenoxy)butyl)benzamido)propanoic acid] | 2840
CCCC(Oc1ccc(-c2cn[nH]c2)cc1)c1ccc(C(=O)NCCC(=O)O)cc1 (racemic) [Example 56, (+/−)-3-(4-(1-(4-(1H-pyrazol-4-yl)phenoxy)butyl)benzamido)propanoic acid] | 4370
CCCC(Oc1ccc(-n2cncn2)cc1)c1ccc(C(=O)NCCC(=O)O)cc1 (racemic) [Example 47, (+/−)-3-(4-(1-(4-(1H-1,2,4-triazol-1-yl)phenoxy)butyl)benzamido)propanoic acid] | 7810
CCCC(Oc1ccc(-n2cc(C)c(C)n2)cc1)c1ccc(C(=O)NCCC(=O)O)cc1 (racemic) [Example 39, (+/−)-3-(4-(1-(4-(3,4-dimethyl-1H-pyrazol-1-yl)phenoxy)butyl)benzamido)propanoic acid] | 2460
CCCC(Oc1ccc(-n2cc(CC)c(C)n2)cc1)c1ccc(C(=O)NCCC(=O)O)cc1 (racemic) [Example 24, (+/−)-3-(4-(1-(4-(4-ethyl-3-methyl-1H-pyrazol-1-yl)phenoxy)butyl)benzamido)propanoic acid] | 1030
CCCC(Nc1ccc(-n2cnc(C(F)(F)F)c2)nc1)c1ccc(C(=O)NCCC(=O)O)cc1 (racemic) [Example 9, (+/−)-3-(4-(1-(6-(4-(trifluoromethyl)-1H-imidazol-1-yl)pyridine-3-ylamino)butyl)benzamido)propanoic acid] | 572
O=C(O)CCNC(=O)c1ccc(C(Nc2ccc(-n3cc(C(F)(F)F)cn3)nc2)C2CCCC2)cc1 (single isomer, unassigned) [Example 96, 3-(4-(cyclopentyl(6-(4-(trifluoromethyl)-1H-pyrazol-1-yl)pyridine-3-ylamino)methyl)benzamido)propanoic acid] | 871
